# Like-named read-outs stand apart in the source and are kept apart here.
# How the values were obtained:
# [1] = In vitro growth inhibition/survival, bone marrow control cells (radiometric BACTEC); format: cell-based; settings: human, continuous exposure (10, 1 and 0.1 μg/ml tested; concentration of this value not given)
# Excerpt: (§1) CELL LINES: Eight different established human cell lines CALU (lung), COLO320 (colon), H578St (breast), HT-29 (colon), MCF-7 (breast), OM-1 (colon), SKLU (lung) and SKMES (lung), and two control cell lines (bone marrow andr fibroblasts) were utilized.
# (§2) All cell lines were obtained from the Tumor Cloning Laboratory, Institute for Drug Development, Cancer Therapy and Research Center, San Antonio, Tex. All cell lines grew as monolayers in the appropriate culture medium supplemented with heat-inactivated calf serum. All reagents were obtained from Grand Island Biological Co., Grand Island, N.Y.
# (§3) The iv formulations of the compounds of the present invention were prepared with sterile buffered saline and stored at -70° C. until required for testing.
# (§4) Following trypsinization, tumor cells were suspended in tissue culture medium and exposed to the antitumor agents continuously at three different concentrations: 10, 1 and 0.1 μg/ml.
# (§5) RADIOMETRIC MEASUREMENT OF GROWTH INHIBITION: Growth inhibition was assessed with the BACTEC System 460 (Johnston Laboratories, Towson, Md.) after addition of the antitumor agent in the respective growth medium containing ^14 C-glucose at a final concentration of 2 μCi/ml.
# Two mls of the tumor cell suspension containing radioactive glucose were seeded into sterile, disposable 15 ml vials by injection through self-sealing rubber-aluminum caps. […]
# HS578T (breast) = assay: In vitro growth inhibition of HS578T tumor cells (radiometric BACTEC); format: cell-based; settings: Homo sapiens, Hs-578T, concentration required to kill 50% of the untreated cancer cells
# Excerpt: as §1
# as §2, with “N.Y. […]” for “N.Y.”
# (§6) RADIOMETRIC MEASUREMENT OF GROWTH INHIBITION: Growth inhibition was assessed with the BACTEC System 460 (Johnston Laboratories, Towson, Md.) after addition of the antitumor agent in the respective growth medium containing ^14 C-glucose at a final concentration of 2 μCi/ml. […]
# (§7) Two mls of the tumor cell suspension containing radioactive glucose were seeded into sterile, disposable 15 ml vials by injection through self-sealing rubber-aluminum caps. […] Chemotherapy sensitivity was calculated by comparing the growth index values of drug-treated vials to that observed in control vials. […]
# (§8) The data presented in Table I are compared to results achieved with 5-FU as the control. […] In this regard, a therapeutic ratio for a given compound is typically determined by the following calculation. […]
# CALU (lung) = assay: In vitro growth inhibition of CALU tumor cells (radiometric BACTEC); format: cell-based, human; settings: for IC50: Homo sapiens
# Excerpt: as §1, §2, §3, §4, §5
# (§9) Two mls of the tumor cell suspension containing radioactive glucose were seeded into sterile, disposable 15 ml vials by injection through self-sealing rubber-aluminum caps. […] The seeded vials were then incubated at 37° C. Measurement of the release of ^14 CO2 resulting from the metabolism of ^14 C-glucose were performed on days 6, 9, 12, and 15 in the BACTEC instrument. This instrument flushes the ^14 CO2 containing air out of the vials into an ionization chamber that converts dpm to growth index values. […] Each data point represents triplicate values.
# (§10) All compounds were dosed on an equimilimolar basis. […] [formula]
# COLO320 (colon) = assay: In vitro growth inhibition of COLO320 tumor cells (radiometric BACTEC); format: cell-based; settings: Homo sapiens, COLO 320, concentration required to kill 50% of the untreated cancer cells
# Excerpt: as §1
# as §2, with “N.Y. […]” for “N.Y.”
# as §6, §7, §8
# SKLU (lung) = assay: In vitro growth inhibition of SKLU tumor cells (radiometric BACTEC); format: cell-based; settings: Homo sapiens, concentration required to kill 50% of the untreated cancer cells
# Excerpt: as §1
# as §2, with “N.Y. […]” for “N.Y.”
# as §6, §7, §8
# SKMES (lung) = assay: In vitro growth inhibition of SKMES tumor cells (radiometric BACTEC); format: cell-based, human; settings: for IC50: Homo sapiens
# Excerpt: as §1, §2, §3, §4, §5, §9, §10
# MCF-7 (breast) = assay: In vitro growth inhibition of MCF-7 tumor cells (radiometric BACTEC); format: cell-based, human; settings: for IC50: Homo sapiens, MCF7
# Excerpt: as §1, §2, §3, §4, §5, §9, §10
# HT29 (colon) = assay: In vitro growth inhibition of HT29 tumor cells (radiometric BACTEC); format: cell-based; settings: Homo sapiens, HT-29, concentration required to kill 50% of the untreated cancer cells
# Excerpt: as §1
# as §2, with “N.Y. […]” for “N.Y.”
# as §6, §7, §8
# OM-1 (colon) = assay: In vitro growth inhibition of OM-1 tumor cells (radiometric BACTEC); format: cell-based; settings: Homo sapiens, concentration required to kill 50% of the untreated cancer cells
# Excerpt: as §1
# as §2, with “N.Y. […]” for “N.Y.”
# as §6, §7, §8
# [2] = known drug, background; cited from earlier work
Compound,viability [1],IC50 (HS578T (breast)),IC50 (CALU (lung)),IC50 (COLO320 (colon)),IC50 (SKLU (lung)),IC50 (SKMES (lung)),IC50 (MCF-7 (breast)),IC50 (HT29 (colon)),IC50 (OM-1 (colon)),side effects [2],"% SURVIVAL TUMOR (CALU (lung); CALU, continuous exposure (10, 1 and 0.1 μg/ml tested; concentration of this value not given))","IC50 (CALU (lung); CALU, concentration required to kill 50% of the untreated cancer cells, read-out: IC 50)","IC50 (SKMES (lung); SKMES, concentration required to kill 50% of the untreated cancer cells, read-out: IC 50)","% SURVIVAL TUMOR (SKMES (lung); SKMES, continuous exposure, concentration of this value not given)","IC50 (MCF-7 (breast); MCF-7, concentration required to kill 50% of the untreated cancer cells, read-out: IC 50)","% SURVIVAL TUMOR (MCF-7 (breast); MCF-7, continuous exposure, concentration of this value not given)"
"O=c1[nH]cc(F)c(=O)[nH]1 [5-FU, 5-fluorouracil]",38.6%,> 0.6 µg/mL,< 0.6 µg/mL,< 0.6 µg/mL,1.05 µg/mL,< 0.6 µg/mL,< 0.6 µg/mL,0.613 µg/mL,1.47 µg/mL,"nausea, vomiting, diarrhea, leukopenia, thrombocytopenia, alopecia",,,,,,
O=c1[nH]c(=O)n([C@@H]2OC[C@H](O)[C@@H]2O)cc1F [α-L-erythrofuranosyl-5-fluorouracil],104%,,,,,,,,,,85.3%,> 10 µg/mL,> 10 µg/mL,67.4%,> 10 µg/mL,52.7%

# Source: patent publication US5672594A, “L-erythrosyl nucleosides” (Genencor International, Inc., priority 1994, dated 1997)
